Assay results reported in paper PMC6237300, “Influenza B viruses circulated during last 5 years in Mongolia” (PLoS ONE, 2018).

Tests used:
[1] = target: NA of B/Ulaanbaatar/1113/2014 (I114T) (Influenza B virus, UniProt U5XBU0, I114T); type: biochemical
[2] = target: NA of B/Darkhan/1484/2014 (H101N, E105K) (Influenza B virus, UniProt U5XBU0, E105K/H101N); type: biochemical
[3] = target: NA of B/Khentii/1137/2014 (G140R) (Influenza B virus, UniProt U5XBU0, G140R); type: biochemical
[4] = target: NA of B/Ulaanbaatar/1495/2014 (E105K) (Influenza B virus, UniProt U5XBU0, E105K); type: biochemical
[5] = target: NA of B/Ulaanbaatar/1708/2014 (G104R) (Influenza B virus, UniProt U5XBU0, G104R); type: biochemical
[6] = test system: neuraminidase of the influenza B virus with H273Y mutation; conditions: cited from earlier work

SMILES | susceptibility category [1] | susceptibility category [2] | susceptibility category [3] | susceptibility category [4] | Fold increase [1] | IC50 [1] | Fold increase [2] | IC50 [2] | Fold increase [5] | IC50 [5] | Fold increase [3] | IC50 [3] | resistance of H273Y mutant [6] | Fold increase [4] | IC50 [4]
[H]/N=C(\N)N[C@H]1C=C(C(=O)O)O[C@@H]([C@H](OC)[C@H](O)CO)[C@@H]1NC(C)=O [Laninamivir, laninamivir] | sensitive | reduced susceptibility | sensitive | reduced susceptibility |  |  |  |  |  |  |  |  |  |  | 
CCC(CC)[C@H](NC(C)=O)[C@@H]1[C@H](O)[C@@H](C(=O)O)C[C@H]1N=C(N)N [Peramivir, peramivir] | reduced susceptibility | highly reduced susceptibility | reduced susceptibility | highly reduced susceptibility | 10 | 11.8 nM | 2500 | 1530 nM | >100000 | 288000 nM | 10 | 7.18 nM | resistant | 5000 | 3270 nM
